Data on 18 molecules can be found in PubChem BioAssay AID328 (DTP/NCI, 2004).

Values joined by “and” are separate entries in the source; they are usually repeats but may differ in a detail not shown here. Equal entries are not always repeated. Inconclusive results and toxic doses are left out.

The subject of the assay is BDF1 mice, P388 leukemia ip, median survival T/C. As to the kind of experiment: NCI In Vivo Anticancer Drug Screen. Data for tumor model P388 Leukemia (intraperitoneal) in B6D2F1 (BDF1) mice. The conditions noted are these: endpoint: median survival time, higher = longer survival. The gist of the method: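 Transplantable tumour in mice; compound vs vehicle dosing; survival scored; ratio of treated to control reported.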

Setting [1] is: dose: 50.0 mg/kg/injection, schedule: Q01DX009 (ip), vehicle: saline.
The mark [2] stands for this setting: dose: 12.5 mg/kg/injection, schedule: Q01DX009 (ip), vehicle: Klucel (hydroxypropylcellulose) (HPC).
[3] abbreviates: dose: 25.0 mg/kg/injection, schedule: Q01DX009 (ip), vehicle: Klucel (hydroxypropylcellulose) (HPC).
Setting [4] is: dose: 50.0 mg/kg/injection, schedule: Q01DX009 (ip), vehicle: Klucel (hydroxypropylcellulose) (HPC).
Where [5] appears, read: dose: 100.0 mg/kg/injection, schedule: Q01DX009 (ip), vehicle: Klucel (hydroxypropylcellulose) (HPC).
Setting [6] is: dose: 200.0 mg/kg/injection, schedule: Q01DX009 (ip), vehicle: Klucel (hydroxypropylcellulose) (HPC).
The mark [7] stands for this setting: dose: 100.0 mg/kg/injection, schedule: Q04DX003 (ip), vehicle: Klucel (hydroxypropylcellulose) (HPC).
Where [8] appears, read: dose: 200.0 mg/kg/injection, schedule: Q04DX003 (ip), vehicle: Klucel (hydroxypropylcellulose) (HPC).
Setting [9] is: dose: 400.0 mg/kg/injection, schedule: Q04DX003 (ip), vehicle: Klucel (hydroxypropylcellulose) (HPC).
[10] abbreviates: dose: 50.0 mg/kg/injection, schedule: Q01DX009 (ip), vehicle: saline with Tween-80.
[11] abbreviates: dose: 100.0 mg/kg/injection, schedule: Q01DX009 (ip), vehicle: saline with Tween-80.
[12] abbreviates: dose: 200.0 mg/kg/injection, schedule: Q01DX009 (ip), vehicle: saline with Tween-80.
Setting [13] is: dose: 400.0 mg/kg/injection, schedule: Q01DX009 (ip), vehicle: saline with Tween-80.

For the molecule `CN(CCCl)Cc1ccccc1`, the T/C is 95 % of control (dose: 0.04 mg/kg/injection, schedule: Q01DX009 (ip), vehicle: saline); 87 % of control (dose: 0.07 mg/kg/injection, schedule: Q01DX009 (ip), vehicle: saline); 104 % of control (dose: 22.0 mg/kg/injection, schedule: Q04DX003 (ip), vehicle: saline); 109 % of control (dose: 25.0 mg/kg/injection, schedule: Q04DX003 (ip), vehicle: saline); 116 % of control (dose: 33.0 mg/kg/injection, schedule: Q01DX009 (ip), vehicle: saline sonified); 109 % of control (dose: 35.0 mg/kg/injection, schedule: Q04DX003 (ip), vehicle: saline). Further, the T/C is 120 % of control (dose: 50.0 mg/kg/injection, schedule: Q01DX009 (ip), vehicle: saline sonified); 210 % of control under setting [1]; 195 % of control (dose: 75.0 mg/kg/injection, schedule: Q01DX009 (ip), vehicle: saline sonified); 155 % of control (dose: 100.0 mg/kg/injection, schedule: Q01DX009 (ip), vehicle: saline); 175 % of control (dose: 150.0 mg/kg/injection, schedule: Q04DX003 (ip), vehicle: saline).
Turning to `CCNc1nc(Cl)nc(-c2cn(-c3ccccc3)c3ccccc23)n1`, the T/C is 100 % of control under setting [2], 91 % of control under setting [3], 86 % of control under setting [4] and 91 % of control under setting [5].
In the case of `COc1ccc(C(=S)N(C)NC(=O)CC(=O)NN(C)C(=S)c2ccc(OC)cc2)cc1`, the T/C by setting is: under setting [3], 100 % of control; under setting [4], 102 % of control; under setting [5], 89 % of control; under setting [6], 100 % of control.
With `C=CCNC(=S)Nc1cc(Cl)ccc1OC`, the T/C under setting [7] is 109 % of control, the T/C under setting [8] is 95 % of control and the T/C under setting [9] is 95 % of control.
Consider `NNC(=O)C(O)C(O)C(=O)NN` (centres undefined), for which the T/C (dose: 60.0 mg/kg/injection, schedule: Q01DX009 (ip), vehicle: saline) was 96 % of control and the T/C (dose: 120.0 mg/kg/injection, schedule: Q01DX009 (ip), vehicle: saline) is 93 % of control.
Take `CCCCCCOP(=O)(N1CC1)N1CC1`: the T/C (dose: 25.0 mg/kg/injection, schedule: Q01DX009 (ip), vehicle: saline) was 123 % of control; the T/C under setting [1] is 90 % of control; the T/C (dose: 100.0 mg/kg/injection, schedule: Q04DX003 (ip), vehicle: saline with Tween-80) is 113 % of control.
With `O=c1[nH]c(SCc2ccc([N+](=O)[O-])cc2)nc2ccccc12`, the T/C runs as follows: under setting [7], 95 % of control; under setting [8], 90 % of control.
For the molecule `COc1ccccc1C(C#N)N1CCCN(C(C#N)c2ccccc2OC)C1c1cc(Cl)cc(Cl)c1O` (centres undefined), the T/C was 95 % of control under setting [10], 98 % of control under setting [11], 98 % of control under setting [12] and 91 % of control under setting [13].
In the case of `CO/N=C/c1cccnc1`, the T/C (dose: 50.0 mg/kg/injection, schedule: Q01DX005 (ip), vehicle: saline) was 101 % of control and the T/C (dose: 100.0 mg/kg/injection, schedule: Q01DX005 (ip), vehicle: saline) is 105 % of control.
Turning to `CN(C)c1cc(Br)c(C=O)cc1[N+](=O)[O-]`, the T/C under setting [7] is 95 % of control, the T/C under setting [8] is 95 % of control and the T/C under setting [9] is 100 % of control.
`CC1CCCC/C1=N/NC(N)=O` (centres undefined): the T/C reads like this: under setting [2], 95 % of control; under setting [3], 95 % of control; under setting [4], 91 % of control; under setting [5], 104 % of control; under setting [7], 100 % of control; under setting [6], 86 % of control. Moreover, the T/C by setting is: under setting [8], 95 % of control; under setting [9], 95 % of control.
Turning to `O=Cc1ccc(/C=C2\NC(=O)NC2=O)cc1`, the T/C runs as follows: (dose: 3.12 mg/kg/injection, schedule: Q01DX009 (ip), vehicle: water) 89 % of control; (dose: 6.25 mg/kg/injection, schedule: Q01DX009 (ip), vehicle: Klucel (hydroxypropylcellulose) (HPC)) 100 % of control; (dose: 6.25 mg/kg/injection, schedule: Q01DX009 (ip), vehicle: water) 106 % of control; under setting [2], 95 % of control; (dose: 12.5 mg/kg/injection, schedule: Q01DX009 (ip), vehicle: water) 120 % of control; under setting [3], 92 % of control. In addition, the T/C was 121 % of control (dose: 25.0 mg/kg/injection, schedule: Q01DX009 (ip), vehicle: water); 92 % of control under setting [4]; 103 % of control (dose: 50.0 mg/kg/injection, schedule: Q04DX003 (ip), vehicle: water); 87 % of control (dose: 100.0 mg/kg/injection, schedule: Q04DX003 (ip), vehicle: water); 119 % of control (dose: 200.0 mg/kg/injection, schedule: Q04DX003 (ip), vehicle: water).
`O=C(CCC(=O)c1cccc([N+](=O)[O-])c1)NNc1ccc([N+](=O)[O-])cc1[N+](=O)[O-]`: the T/C runs as follows: under setting [11], 104 % of control; under setting [12], 90 % of control; under setting [13], 95 % of control.
As to `O=[N+]([O-])c1ccc(N/N=C(\CCl)c2ccccc2)c([N+](=O)[O-])c1`, the T/C by setting is: (dose: 25.0 mg/kg/injection, schedule: Q01DX001 (ip), vehicle: saline with Tween-80) 109 % of control; (dose: 50.0 mg/kg/injection, schedule: Q01DX001 (ip), vehicle: saline with Tween-80) 104 % of control; (dose: 100.0 mg/kg/injection, schedule: Q01DX001 (ip), vehicle: saline with Tween-80) 104 % of control.
In the case of `COc1cc2ccc3c4cc5c(cc4cnc3c2cc1OC)OCO5`, the T/C is 109 % of control and 119 % of control (dose: 12.5 mg/kg/injection, schedule: Q01DX009 (ip), vehicle: saline with Tween-80); 102 % of control (dose: 12.5 mg/kg/injection, schedule: Q04DX003 (ip), vehicle: saline with Tween-80); 106 % of control (dose: 25.0 mg/kg/injection, schedule: Q01DX009 (ip), vehicle: saline with Tween-80); 100 % of control (dose: 25.0 mg/kg/injection, schedule: Q04DX003 (ip), vehicle: saline with Tween-80); 106 % of control under setting [10]; 92 % of control (dose: 50.0 mg/kg/injection, schedule: Q04DX003 (ip), vehicle: saline with Tween-80). The T/C is 99 % of control and 100 % of control and 114 % of control under setting [11]; 107 % of control and 111 % of control under setting [12]; 101 % of control and 124 % of control under setting [13]; 92 % of control (dose: 400.0 mg/kg/injection, schedule: Q04DX003 (ip), vehicle: saline with Tween-80).
With `O=[N+]([O-])c1ccc(SC2=NCCN2)c(Cl)c1`, the T/C reads like this: under setting [10], 94 % of control; under setting [11], 103 % of control; under setting [12], 112 % of control.
Turning to `COc1cc(-c2ccc(O)cc2)c(OC)c(O)c1-c1ccc(O)c(O)c1`, the T/C (dose: 1.25 mg/kg/injection, schedule: Q01DX009 (ip), vehicle: Klucel (hydroxypropylcellulose) (HPC)) is 97 % of control; the T/C (dose: 2.5 mg/kg/injection, schedule: Q01DX009 (ip), vehicle: Klucel (hydroxypropylcellulose) (HPC)) is 96 % of control; the T/C (dose: 5.0 mg/kg/injection, schedule: Q01DX009 (ip), vehicle: Klucel (hydroxypropylcellulose) (HPC)) was 98 % of control; the T/C (dose: 10.0 mg/kg/injection, schedule: Q01DX009 (ip), vehicle: Klucel (hydroxypropylcellulose) (HPC)) was 95 % of control; the T/C (dose: 20.0 mg/kg/injection, schedule: Q01DX009 (ip), vehicle: Klucel (hydroxypropylcellulose) (HPC)) is 97 % of control; the T/C (dose: 40.0 mg/kg/injection, schedule: Q01DX009 (ip), vehicle: Klucel (hydroxypropylcellulose) (HPC)) is 97 % of control.
Regarding `CCOC(=O)C1NC(=S)NCC1=O` (centres undefined), the T/C was 110 % of control under setting [5] and 110 % of control under setting [6].
